{"source": "patent US8481263B2", "about": "“Bead-ligand-nascent protein complexes” (Ambergen, priority 2007, dated 2013)", "biological_target": "T1, PKCα (Homo sapiens, UniProt P17252)", "T1 construct": "isolate and photo-release endogenous PKCa from the undiluted detergent fractionated HeLa cell extracts; endogenous in cells; host or cells: HeLa cells (ATCC)", "assay": "PKCα sub-cellular translocation measured by kinase activity after photocleavable antibody isolation", "assay_type": "cell-based", "conditions": "cultured HeLa cells stimulated with 200 nM PMA for 5 min; detergent fractionated; kinase activity of PC-antibody isolated PKCα; n=4", "description": "Cultured HeLa cells (ATCC; Manassas, Va.) were stimulated for 5 min with 200 nM Phorbol-12-Myristate-13-Acetate (PMA; EMD Biosciences, Inc., San Diego, Calif.) and subsequently detergent fractionated into sub-cellular compartments according to reported procedures [Ramsby et al. (1994) Electrophoresis 15, 265-277; Ramsby & Makowski. (1999) Methods Mol Biol 112, 53-66; Chiang et al. (2000) J Biochem Biophys Methods 46, 53-68]. PMA is a potent activator of PKCα and is well known to cause translocation of the kinase from the cytosolic to the membrane sub-cellular compartments [Ross & Joyner. (1997) Endothelium 5, 321-332; Bazan & Rapoport. (1996) J Pharmacol Toxicol Methods 36, 87-95; Yazlovitskaya & Melnykovych. (1995) Cancer Lett 88, 179-183].\nA photocleavable antibody conjugated solid affinity matrix was prepared and used to isolate and photo-release the antigen into solution essentially as described in Example 2 except that in this case, a photocleavable anti-IgG secondary antibody was used to immobilize the unlabeled primary antibody onto the solid affinity matrix. This antibody affinity matrix was used to isolate and photo-release endogenous PKCa from the undiluted detergent fractionated HeLa cell extracts. […]", "data": [{"smiles": "CCCCCCCCCCCCCC(=O)O[C@@H]1[C@@H](C)[C@@]2(O)[C@@H](C=C(CO)C[C@]3(O)C(=O)C(C)=C[C@@H]23)[C@@H]2C(C)(C)[C@]12OC(C)=O", "note": "[PMA, Phorbol-12-Myristate-13-Acetate]", "values": [{"measurement": "PKCα distribution, cytosol", "result": "16±4", "unit": "%"}, {"measurement": "PKCα distribution, membrane", "result": "84±3", "unit": "%"}]}]}
